Test results as given in patent publication US9682066B2 (University of Cincinnati, priority 2012, dated 2017).

Columns and labels:
[1] = target: T1, aromatase activity in rat glioma cell line C6 (Rattus norvegicus, UniProt P22443); assay: Aromatase activity (estradiol EIA assay); format: cell-based; details: testosterone 0.1 μM, 2 days incubation
T1 construct: endogenous in cells; host or cells: C6 rat glioma cell line
T1 sequence (P22443 1-508): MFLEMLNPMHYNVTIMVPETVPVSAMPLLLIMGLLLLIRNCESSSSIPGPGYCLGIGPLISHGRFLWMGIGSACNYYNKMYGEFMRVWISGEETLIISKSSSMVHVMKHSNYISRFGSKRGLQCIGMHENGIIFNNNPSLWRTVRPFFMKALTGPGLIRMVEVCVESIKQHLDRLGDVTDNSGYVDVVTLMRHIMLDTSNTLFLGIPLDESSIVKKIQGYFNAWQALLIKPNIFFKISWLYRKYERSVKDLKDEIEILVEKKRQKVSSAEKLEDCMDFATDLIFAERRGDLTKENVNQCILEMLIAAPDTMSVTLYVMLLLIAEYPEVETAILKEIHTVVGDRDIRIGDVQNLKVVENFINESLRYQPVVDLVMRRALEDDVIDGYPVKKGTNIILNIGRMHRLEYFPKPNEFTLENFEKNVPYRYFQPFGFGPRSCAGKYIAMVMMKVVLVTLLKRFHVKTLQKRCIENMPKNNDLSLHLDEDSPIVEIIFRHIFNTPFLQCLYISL

[2] = test system: C6 glioma; assay: In vivo anti-tumor efficacy of oral dosed letrozole; parameters: species or system rat; details: 4 mg/kg/day oral gavage stopped after 15 days; scan on Day 45
From the text: Rats received tumor implantation as described in Example 6. […] Animals were scanned 5, 10, and 15 days after treatment period to observe change in tumor volume. After 15 days, treatment was stopped. Animals were scanned again on Day 45 (30 days post cessation of treatment).

[3] = Brain pharmacokinetics after oral administration; format: in vivo; details: rat, 4 mg/kg oral gavage, brain ECF
From the text: A slight delay in Tmax was observed, consistent with the delay of appearance of the drug in systemic circulation.

[4] = test system: rat glioma cell line C6; assay: Cytotoxicity of letrozole (MTT assay); format: cell-based
[5] = test system: T98G; assay: Cytotoxicity of letrozole (MTT assay); format: cell-based; details: Homo sapiens
[6] = test system: MDA-MB-231; assay: Cytotoxicity of letrozole (MTT assay); format: cell-based; details: Homo sapiens
[7] = Normal brain ECF (microdialysis) versus plasma pharmacokinetics, IV bolus; details: for Cmax, Brain: brain ECF; for Cmax, Brain / AUC0-8 hr, Plasma ub (Unbound) / Cmax, Plasma ub (Unbound): mean±SD;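 on all read-outs here: parameters by non-compartmental analysis, mean±SD, brain ECF sampled by microdialysis in freely moving rats and corrected for in vivo recovery, Kp as brain ECF AUC over unbound plasma AUC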
Protocol: (§1) Experiments were carried out in female Sprague-Dawley rats weighing 200-250 g. […] Blood samples from jugular vein cannulation and dialysate samples from microdialysis probe implanted stereotactically into the striatum region of the brain were obtained every 30 minutes over 8 hours and analyzed by HPLC (fluorescence detection, Excitation λ, 230 nm; Emission λ, 295 nm). Microdialysate samples were corrected for in vivo relative recovery (9.5%), measured under similar experimental conditions.
(§2) In order to obtain the correct ECF concentrations from those obtained by bioanalysis of dialysate samples, the correction factor known as “% recovery” is employed. The % recovery for a compound can be obtained by in vivo or in vitro recovery analysis. […] In vitro relative recovery was calculated as follows: % recoveryin vitro=[C(dialysate)/C(reservoir)]×100
(§3) At the end of microdialysis, brain tissues were collected after transcardial perfusion for histological evaluation to confirm formation of tumor in the right striatum and immunohistochemistry to differentiate the expression of aromatase in tumoral and normal brain regions. The pharmacokinetic parameters (including time required to achieve maximum drug levels (Tmax), area under the concentrations-time curve (AUC) over a defined time interval, and peak or maximum concentrations (Cmax)) of both plasma and brain ECF were estimated by non-compartmental analysis using WinNonlin 6.2 (Pharsight Inc.).
(§4) The brain ECF concentrations were time-averaged over the collection interval and corrected for in vivo recovery. […] Results are presented as mean±SD. (N=9 for 4 and 8 mg/kg, N=6 for 6 and 12 mg/kg). […] Simultaneous plasma and ECF pharmacokinetic determination facilitated estimation of the relative brain distribution coefficient, calculated as (AUCbrain ecf/AUCplasma, ub).

[8] = test system: U373MG; assay: Cytotoxicity of letrozole (MTT assay); format: cell-based; details: Homo sapiens, U373 MG
[9] = test system: MCF-7; assay: Cytotoxicity of letrozole (MTT assay); format: cell-based; details: Homo sapiens, MCF7
[10] = test system: C6 glioma; details: 4 mg/kg/day i.v.
From the text: 10 days after tumor implantation, anesthetized rats were scanned on μPET scanner (Siemens Inveon) to obtain active tumor volume at Day 0.
Animals were scanned again 8-10 days post treatment to assess change in tumor volume.

[11] = test system: brain metastases from breast cancer; details: cited from earlier work
[12] = test system: aromatase; assay: Aromatase expression in rat glioma tissue (IHC); format: in vivo; details: treatment group versus control group (high expression)
Protocol: Expression of aromatase in tumors from rats of both control and treatment groups was evaluated using immunohistochemical (IHC analysis). Rat ovary (FIG. 12(A)) was used as a positive control for aromatase expression.

[13] = Tumoral versus normal brain ECF pharmacokinetics in C6 glioma-bearing rats; format: in vivo, female Sprague-Dawley rats
Protocol: Histology of rat brains was performed as outlined in Apparaju et al., Pharmacokinetics of gemcitabine in tumor and non-tumor extracellular fluid of brain: an in vivo assessment in rats employing intracerebral microdialysis, Cancer Chemother. Pharmacol. 61: 223-29 (2008).

[14] = Plasma protein binding with non-specific binding correction; format: in vitro ADME; details: NSB correction, concentration range 0.1-10 μM
From the text: Results are presented as mean±SD.

[15] = Tumoral versus normal brain ECF pharmacokinetics in C6 glioma-bearing rats; format: in vivo; details: female, Sprague-Dawley, rat, mean±SD; for AUC(0-t): 8 mg/kg IV bolus
[16] = in vivo; details: female, Sprague-Dawley, rat, iv
Protocol: as §1, §2, §3, §4

[17] = female, Sprague-Dawley, rat, tumor-free brain ECF (left striatum, control), 8 mg/kg IV bolus, tumor-free brain ECF, mean±SD

With `N#Cc1ccc(C(c2ccc(C#N)cc2)n2cncn2)cc1` [letrozole, 4,4′-((1H-1,2,4-triazol-1-yl)methylene)dibenzonitrile] the IC50 [1] was 100 nM, the “tumor course after cessation of treatment” value [2] was “tumors recurred once treatment was stopped” and the Cmax [3] was 176 ± 23 ng/mL. It also gave a Tmax [3] of 5.75 ± 1.8 h, an AUC(0-t) ([3]; read-out: AUC0-8 hr) of 976 ± 162 ng·h/mL and an IC50 [4] of 110 nM. For the same molecule, the IC50 [5] was 2810 nM, the IC50 [6] was over 100000 nM and the “Cmax, Brain” value ([7]; 4 mg/kg IV bolus) was 132 ± 79 ng/mL. For the same molecule, the “AUC0-8 hr, Plasma ub (Unbound)” value ([7]; 4 mg/kg IV bolus) was 1817 ± 354 ng·h/mL, the “Cmax, Plasma ub (Unbound)” value ([7]; 4 mg/kg IV bolus) was 259 ± 9 ng/mL and the “AUC0-8 hr, Plasma ub (Unbound)” value ([7]; 6 mg/kg IV bolus) was 2272 ± 56 ng·h/mL. For the same molecule, the “Cmax, Plasma ub (Unbound)” value ([7]; 6 mg/kg IV bolus) was 348 ± 27 ng/mL, the “Cmax, Brain” value ([7]; 8 mg/kg IV bolus) was 376 ± 61 ng/mL and the “AUC0-8 hr, Plasma ub (Unbound)” value ([7]; 8 mg/kg IV bolus) was 3355 ± 412 ng·h/mL. For the same molecule, the “Cmax, Plasma ub (Unbound)” value ([7]; 8 mg/kg IV bolus) was 485 ± 69 ng/mL, the “Cmax, Brain” value ([7]; 12 mg/kg IV bolus) was 631 ± 22 ng/mL and the “AUC0-8 hr, Plasma ub (Unbound)” value ([7]; 12 mg/kg IV bolus) was 3062 ± 539 ng·h/mL. The “Cmax, Plasma ub (Unbound)” value ([7]; 12 mg/kg IV bolus) was 787 ± 98 ng/mL, the “dose linearity of brain and plasma pharmacokinetics” value ([7]; IV bolus 4, 6, 8, 12 mg/kg, linear regression of Cmax and AUC0-8hr) was “linear up to 8 mg/kg and potentially non-linear thereafter” and the IC50 [8] was 4390 nM. For the same molecule, the IC50 [9] was under 100 nM, the “clinical condition of treated rats” value ([10]; throughout the treatment period) was “no clinical symptoms” and the “tumor volume, treatment rat 8, day 8” value ([10]; Day 0 volume 90.9 mm^3) was 5.8 mm^3. For the same molecule, the “tumor volume, treatment rat 4, Day 5” value ([10]; Day 0 volume 100.5 mm^3) was 70.5 mm^3, the “tumor volume, treatment rat 4, Day 10” value ([10]; Day 0 volume 100.5 mm^3) was 18.7 mm^3 and the “clinical response of brain metastases, case report (Madhup et al.)” value ([11]; person, 5-mg tablets once daily, repeat CECT in 2005) was “significant reduction in the brain metastases”. The “clinical response of brain metastases, case report (Goyal et al.)” value ([11]; postmenopausal person, 2.5 mg daily, 20 months later) was “complete recovery of neurological functions”, the “aromatase expression in tumor sections (IHC)” value [12] was “relatively low aromatase expression” and the “Cmax, Tumor” value ([13]; 4 mg/kg IV bolus, tumoral brain ECF, mean±SD) was 354 ± 34 ng/mL. For the same molecule, the “Cmax, Tumor” value ([13]; 8 mg/kg IV bolus, tumoral brain ECF, mean±SD) was 1022 ± 204 ng/mL, the Tmax ([13]; female, Sprague-Dawley, rat, tumor-free brain ECF (left striatum, control), 4 mg/kg IV bolus, tumor-free brain ECF, mean±SD) was 1.75 ± 0.5 h and the AUC(0-t) ([13]; female, Sprague-Dawley, rat, tumor-free brain ECF (left striatum, control), 4 mg/kg IV bolus, tumor-free brain ECF, mean±SD, read-out: AUC0-8 hr, Control) was 803 ± 216 ng·h/mL. The Cmax [13, 17] was 475 ± 87 ng/mL, the Tmax [13, 17] was 1.33 ± 0.3 h and the AUC(0-t) ([13]; female, Sprague-Dawley, rat, tumoral brain ECF (right striatum), 4 mg/kg IV bolus, tumoral brain ECF, mean±SD, read-out: AUC0-8 hr, Tumor) was 1160 ± 167 ng·h/mL. The “penetration of BBB and BTB” value ([13]; rats, microdialysis) was “effectively crosses the BBB and BTB”, the fraction unbound [14] was 0.38 and the Cmax ([15]; tumor-free brain ECF (left striatum, control), 4 mg/kg IV bolus, tumor-free brain ECF) was 183 ± 13 ng/mL. The AUC(0-t) ([15]; tumor-free brain ECF (left striatum, control), tumor-free brain ECF, read-out: AUC0-8 hr, Control) was 2280 ± 428 ng·h/mL, the AUC(0-t) ([15]; tumoral brain ECF (right striatum), tumoral brain ECF, read-out: AUC0-8 hr, Tumor) was 4700 ± 555 ng·h/mL and the Kp ([16]; brain ECF (striatum microdialysate) versus unbound plasma, 4 mg/kg) was 0.51. For the same molecule, the Kp ([16]; brain ECF / unbound plasma, 4 mg/kg) was 0.32, the Kp ([16]; brain ECF / unbound plasma, 6 mg/kg) was 0.98 and the Kp ([16]; brain ECF / unbound plasma, 8 mg/kg) was 0.77. For the same molecule, the Kp ([16]; brain ECF / unbound plasma, 12 mg/kg) was 0.8, the AUC(0-t) ([16]; brain ECF, 4 mg/kg) was 583 ± 189 ng·h/mL and the Cmax ([16]; brain ECF, 4 mg/kg) was 132 ± 79 ng/mL. The Tmax ([16]; brain ECF, 4 mg/kg) was 1.4 ± 0.6 h, the AUC(0-t) ([16]; brain ECF, 6 mg/kg) was 2010 ± 137 ng·h/mL and the AUC(0-t) ([16]; brain ECF, 8 mg/kg) was 2640 ± 286 ng·h/mL. It also gave a Tmax ([16]; brain ECF, 8 mg/kg) of 1.33 ± 0.5 h, an AUC(0-t) ([16]; brain ECF, 12 mg/kg) of 2550 ± 173 ng·h/mL and a Tmax ([16]; brain ECF, 12 mg/kg) of 1.3 to 1.5 h. The AUC(0-t) ([16]; plasma (total), 4 mg/kg) was 4780 ± 932 ng·h/mL, the Cmax ([16]; plasma (total), 4 mg/kg) was 682 ± 24 ng/mL and the AUC(0-t) ([16]; plasma (total), 6 mg/kg) was 5980 ± 146 ng·h/mL. For the same molecule, the Cmax ([16]; plasma (total), 6 mg/kg) was 916 ± 71 ng/mL, the AUC(0-t) ([16]; plasma (total), 8 mg/kg) was 8830 ± 1080 ng·h/mL and the Cmax ([16]; plasma (total), 8 mg/kg) was 1280 ± 182 ng/mL. It also gave an AUC(0-t) ([16]; plasma (total), 12 mg/kg) of 8060 ± 1420 ng·h/mL and a Cmax ([16]; plasma (total), 12 mg/kg) of 2070 ± 258 ng/mL.
